# Reference: patent US20210078983A1, “COMPOSITIONS AND METHODS FOR THE TREATMENT OF CANCER” (Cellix Bio Private Limited, priority 2017, published 2021)
# Where “and” joins values, the source holds several entries; their conditions need not be identical. Identical values can stand only once. Entries after “also recorded” stand apart in the source; their conditions may differ.
# How the values were obtained:
# [1] = system: HCT116 human colon cancer xenograft; assay: Anti-tumor activity in HCT116 xenograft in Foxn1 athymic nude mice (study CLBBI1); type: in vivo; conditions: for Percent Tumor Growth Inhibition (% TGI): 5 days/week
# Source text: Evaluation of the Anti-Tumor Activity of CLX-155 [(2R,3R,4R,5R)-2-(5-fluoro-4-octanamido-2-oxopyrimidin-1(2H)-yl)-5-methyltetrahydrofuran-3,4-diyl diacetate] in Relation to Capecitabine in HCT116 Xenograft in Foxn1 Athymic Nude Mice Model Study Code: CLBBI1
# The purpose of this study was to evaluate the anti-tumor activity of CLX-155 administered by oral gavage, once daily for 5 days/week (two days off) for three weeks in HCT116 human colon cancer xenograft bearing Foxn1 athymic nude mice. The anti-tumor activity of CLX-155 was compared with capecitabine.
# (§1) Foxn1 athymic nude female mice (7-8 weeks) were implanted with human colon cancer cell line, HCT116 (5 million cells/site) subcutaneously in the dorsal right flank. The animals were randomized (N=10) into different treatment groups as vehicle control, CLX-155 (125, 250 and 500 mg/kg/day) or capecitabine (1000 mg/kg/day) based on the tumor volume, when the subcutaneous tumor reached a volume in the range of 70-170 mm3. The doses were selected based on the results of a 7-day repeated dose range finding toxicity study in Foxn1 nude mice.
# (§2) The animals in the control group were dosed with the formulation used for CLX-155, which consisted of Capryol 90 (32.5% w/v), Polysorbate 80 (2.5% w/v) in Water (q.$) at the dose volume of 8 mL/kg. The Capecitabine formulation was prepared using 0.5% Hydroxypropyl methylcellulose (HPMC E 15) in 40 mM citrate buffer, pH 6.0. Treatment to animals was performed for three consecutive weeks (5 days/week dosing followed by 2 days off). The dose volume was 8 and 10 ml/kg body weight for CLX-155 and capecitabine, respectively. […] Tumor growth inhibition (TGI) was calculated based on the tumor volume on a given day as compared to that on day 1.
# [2] = Mortality, clinical signs and body weight in the HCT116 xenograft study; type: in vivo; conditions: for mortality: N=10, deaths on day 14 and 22
# Protocol: as §1, §2
smiles,measurement,setting,value
"CCCCCCCC(=O)Nc1nc(=O)n([C@@H]2O[C@H](C)[C@@H](OC(C)=O)[C@H]2OC(C)=O)cc1F [CLX-155, (2R,3R,4R,5R)-2-(5-fluoro-4-octanamido-2-oxopyrimidin-1(2H)-yl)-5-methyltetrahydrofuran-3,4-diyl diacetate]",Percent Tumor Growth Inhibition (% TGI),"[1]; 125 mg/kg/day oral gavage, day 3",49.4%
same,Percent Tumor Growth Inhibition (% TGI),"[1]; 125 mg/kg/day oral gavage, day 5",59.5%
same,Percent Tumor Growth Inhibition (% TGI),"[1]; 125 mg/kg/day oral gavage, day 8",59.8%
same,Percent Tumor Growth Inhibition (% TGI),"[1]; 125 mg/kg/day oral gavage, day 10",56.3%
same,Percent Tumor Growth Inhibition (% TGI),"[1]; 125 mg/kg/day oral gavage, day 12",58.5%
same,Percent Tumor Growth Inhibition (% TGI),"[1]; 125 mg/kg/day oral gavage, day 15",57.8%
same,Percent Tumor Growth Inhibition (% TGI),"[1]; 250 mg/kg/day oral gavage, day 3",83.6%
same,Percent Tumor Growth Inhibition (% TGI),"[1]; 250 mg/kg/day oral gavage, day 5",61.4%
same,Percent Tumor Growth Inhibition (% TGI),"[1]; 250 mg/kg/day oral gavage, day 8",67.7%
same,Percent Tumor Growth Inhibition (% TGI),"[1]; 250 mg/kg/day oral gavage, day 10",66.5%
same,Percent Tumor Growth Inhibition (% TGI),"[1]; 250 mg/kg/day oral gavage, day 12",66.7%
same,Percent Tumor Growth Inhibition (% TGI),"[1]; 250 mg/kg/day oral gavage, day 15",70.4%
same,Percent Tumor Growth Inhibition (% TGI),"[1]; 500 mg/kg/day oral gavage, day 3",51.1%
same,Percent Tumor Growth Inhibition (% TGI),"[1]; 500 mg/kg/day oral gavage, day 5",67.1%
same,Percent Tumor Growth Inhibition (% TGI),"[1]; 500 mg/kg/day oral gavage, day 8",75.3%
same,Percent Tumor Growth Inhibition (% TGI),"[1]; 500 mg/kg/day oral gavage, day 10",75.4%
same,Percent Tumor Growth Inhibition (% TGI),"[1]; 500 mg/kg/day oral gavage, day 12",79.5%
same,Percent Tumor Growth Inhibition (% TGI),"[1]; 500 mg/kg/day oral gavage, day 15",90.6%
same,complete tumor regressions / complete responders (CR),"[1]; 500 mg/kg/day, N=10",Two and 2/10
same,TGI compared with the other drug (in words),[1]; CLX-155 at 500 mg/kg/day,comparable to capecitabine at 1000 mg/kg/day
same,tumor growth inhibition as compared to the vehicle control (in words),[1]; all dose levels tested,"statistically significant, dose dependent tumor growth inhibition at all doses; also recorded: statistically significant, dose dependent tumor growth inhibition at all the dose levels tested; also recorded: dose-dependent inhibition of tumor growth"
"CCCCCOC(=O)Nc1nc(=O)n([C@@H]2O[C@H](C)[C@@H](O)[C@H]2O)cc1F [Capecitabine, reference compound]",CR or PR observed,[1]; 1000 mg/kg/day,no CR or PR observed
same,Percent Tumor Growth Inhibition (% TGI),"[1]; 1000 mg/kg/day, day 3",27.3%
same,Percent Tumor Growth Inhibition (% TGI),"[1]; 1000 mg/kg/day, day 5",46.2%
same,Percent Tumor Growth Inhibition (% TGI),"[1]; 1000 mg/kg/day, day 8",68.0%
same,Percent Tumor Growth Inhibition (% TGI),"[1]; 1000 mg/kg/day, day 10",75.4%
same,Percent Tumor Growth Inhibition (% TGI),"[1]; 1000 mg/kg/day, day 12",80.9%
same,Percent Tumor Growth Inhibition (% TGI),"[1]; 1000 mg/kg/day, day 15",87.7%
same,TGI compared with the other drug (in words),[1]; Capecitabine at 1000 mg/kg/day,comparable to that observed at 500 mg/kg/day of CLX-155
same,Mean % body weight reduction,[2]; 1000 mg/kg/day,−5.9%
same,clinical signs of toxicity,[2]; 1000 mg/kg/day,hunched back and scaly skin
same,mortality,[2]; 1000 mg/kg/day,Two
same,mortality,"[2]; 1000 mg/kg/day, listed as capecitabine",2/10
same,relative toxicity based on mortality and clinical signs of toxicity,[2]; capecitabine 1000 mg/kg/day vs CLX-155 125-500 mg/kg/day,relatively more toxic than CLX-155
